# In ChEMBL document CHEMBL6121052, “Design of ROS-Triggered Sesquiterpene Lactone SC Prodrugs as TrxR1 Covalent Inhibitors for the Treatment of Non-Small Cell Lung Cancer” (J Med Chem, 2025):
# The source made the active and inactive calls. No cut-off for these calls is given here.
# Experiments:
# A549 [1] = experiment: Cytotoxicity against human A549 cells assessed as cell viability incubated for 48 hrs by MTT assay; assay type: functional, cell-based; conditions: A549, 48 h
# NCI-H1299 = experiment: Cytotoxicity against human NCI-H1299 cells assessed as cell viability incubated for 48 hrs by MTT assay; assay type: functional, cell-based; conditions: NCI-H1299, 48 h
# NCI-H460 [2] = experiment: Cytotoxicity against human NCI-H460 cells assessed as cell viability incubated for 48 hrs by MTT assay; assay type: functional, cell-based; conditions: NCI-H460, 48 h
# [3] = Cytotoxicity against human BEAS-2B cells assessed as cell viability incubated for 48 hrs by MTT assay; assay type: toxicity, cell-based
# [4] = target: T1, Thioredoxin reductase 1, cytoplasmic (Homo sapiens, UniProt Q16881); experiment: Binding affinity to TrxR1 (unknown origin) assessed as dissociation constant by SPR analysis
# T1 sequence (Q16881 whole entry): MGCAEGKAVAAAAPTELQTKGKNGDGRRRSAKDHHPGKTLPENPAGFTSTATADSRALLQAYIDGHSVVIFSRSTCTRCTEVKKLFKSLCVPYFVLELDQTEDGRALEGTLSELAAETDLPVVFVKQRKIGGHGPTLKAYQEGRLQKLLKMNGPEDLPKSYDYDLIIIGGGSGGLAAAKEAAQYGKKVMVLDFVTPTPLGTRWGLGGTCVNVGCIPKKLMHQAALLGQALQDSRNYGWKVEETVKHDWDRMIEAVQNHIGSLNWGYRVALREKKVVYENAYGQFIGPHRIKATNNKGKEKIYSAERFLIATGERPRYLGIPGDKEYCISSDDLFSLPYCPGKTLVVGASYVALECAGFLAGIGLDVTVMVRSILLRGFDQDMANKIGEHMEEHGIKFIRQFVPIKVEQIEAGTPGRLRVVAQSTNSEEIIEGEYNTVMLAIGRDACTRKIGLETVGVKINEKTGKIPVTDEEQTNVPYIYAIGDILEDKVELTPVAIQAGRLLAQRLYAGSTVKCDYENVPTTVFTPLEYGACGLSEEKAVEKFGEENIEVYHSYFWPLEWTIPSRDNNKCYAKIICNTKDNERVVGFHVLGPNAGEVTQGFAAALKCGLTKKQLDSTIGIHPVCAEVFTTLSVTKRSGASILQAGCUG
# NCI-H460 [5] = experiment: Induction of ROS generation in human NCI-H460 cells by DCFH-DA probe based flow cytometry analysis; assay type: functional, cell-based
# A549 [6] = experiment: Induction of ROS generation in human A549 cells by DCFH-DA probe based flow cytometry analysis; assay type: functional, cell-based
# [7] = target: T2, Thioredoxin reductase 1, cytoplasmic (Homo sapiens) (UniProt Q16881); experiment: Inhibition of TrxR1 (unknown origin) using DTNB as substrate preincubated for 1.5 hrs by microplate reader analysis
# T2 sequence (whole entry): T1 sequence (Q16881 whole entry)
# [8] = target: T2, Thioredoxin reductase 1, cytoplasmic (Homo sapiens); experiment: Binding affinity to TrxR1 in human A549 cells assessed as thermal stabilization by measuring reduction in thermal denaturation at 200 uM incubated for 90 mins by CETSA analysis; assay type: cell-based
# [9] = target: T2, Thioredoxin reductase 1, cytoplasmic (Homo sapiens); experiment: Binding affinity to TrxR1 (unknown origin) at Cys475 residue
# [10] = target: T2, Thioredoxin reductase 1, cytoplasmic (Homo sapiens); experiment: Binding affinity to TrxR1 (unknown origin) at Sec498 residue by pull-down analysis
SMILES,IC50 (A549 [1]) [µM],IC50 (NCI-H1299) [µM],IC50 (NCI-H460 [2]) [µM],other results
C/C1=C\[C@@H](OC(=O)NCc2ccc(F)cc2)[C@H]2[C@H](CC3=C[C@H](C1)OC3=O)OC(=O)[C@@H]2CSc1ccc(F)cc1,5.05,5.37,–,–
CCCCCSC(=O)O[C@@H]1/C=C(\C)C[C@H]2C=C(C[C@@H]3OC(=O)[C@H](CSC(=S)N(C)C)[C@H]31)C(=O)O2,1.06,2.64,–,–
C/C1=C\[C@@H](OC(=O)OCc2cccnc2)[C@H]2[C@H](CC3=C[C@H](C1)OC3=O)OC(=O)[C@@H]2CSc1ccc(F)cc1,1.56,11.5,–,–
C/C1=C\[C@@H](OC(=O)C2CC2)[C@H]2[C@H](CC3=C[C@H](C1)OC3=O)OC(=O)[C@@H]2CSc1ccc(Br)cc1,4.6,–,> 25,IC50 at 48 h [3]: > 25 µM
C/C1=C\[C@@H](OC(=O)OC2CC2)[C@H]2[C@H](CC3=C[C@H](C1)OC3=O)OC(=O)[C@@H]2CSc1ccc(F)cc1,3.91,3.04,–,–
C/C1=C\[C@@H](OC(=O)C2CC2)[C@H]2[C@H](CC3=C[C@H](C1)OC3=O)OC(=O)[C@@H]2CSc1ccc(C(F)(F)F)cc1,3.86,–,> 25,IC50 at 48 h [3]: > 25 µM
C/C1=C\[C@@H](OC(=O)SCC(C)C)[C@H]2[C@H](CC3=C[C@H](C1)OC3=O)OC(=O)[C@@H]2CSc1ccc(F)cc1,2.57,5.37,–,–
C=C1C(=O)O[C@H]2CC3=C[C@H](C/C(C)=C/[C@@H](O)[C@H]12)OC3=O,–,–,–,Kd [4]: 42.7 µM
C/C1=C\[C@@H](OC(=O)OCc2ccc(F)cc2)[C@H]2[C@H](CC3=C[C@H](C1)OC3=O)OC(=O)[C@@H]2CSC(=S)N(C)C,0.47,2.93,–,–
C/C1=C\[C@@H](OC(=O)C2CC2)[C@H]2[C@H](CC3=C[C@H](C1)OC3=O)OC(=O)[C@@H]2CSC(=S)N(C)C,0.57,2.18,7.75,–
C/C1=C\[C@@H](OC(=O)C2CC2)[C@H]2[C@H](CC3=C[C@H](C1)OC3=O)OC(=O)[C@@H]2CSc1ccc(F)cc1,4.41,–,> 25,Activity (NCI-H460 [5]): Active; Activity (A549 [6]): Active; IC50 at 48 h [3]: > 25 µM
C/C1=C\[C@@H](OC(=O)C2CC2)[C@H]2[C@H](CC3=C[C@H](C1)OC3=O)OC(=O)[C@@H]2CSCc1ccc(Cl)cc1,> 25,–,> 25,–
C/C1=C\[C@@H](OC(=O)c2ccccc2)[C@H]2[C@H](CC3=C[C@H](C1)OC3=O)OC(=O)[C@@H]2CSc1nc2ccccc2s1,> 25,–,> 25,–
C=C1C(=O)O[C@H]2CC3=C[C@H](C/C(C)=C/[C@@H](OC(=O)NCCC)[C@H]12)OC3=O,–,–,–,inhibition [7]: Active; Activity [8]: Active; Kd [4]: 7.89 µM; Activity [9]: Active; Activity [10]: Active
